Results from patent publication US20250025451A1, “TREATMENT OF CANCER WITH KDM4 INHIBITORS” (Celgene Corporation, priority 2021, published 2025).

Test system: SU60 patient-derived colon cancer organoid model
Assay: organoid colony formation and viability assay, SU60
Assay type: cell-based, human
Experimental: The IC50 values for Compound 1 inhibition of colony formation and viability were determined for the patient-derived colon cancer organoid models: SU60, T002C, SU62, SU34, SU103, T03SC, and SU106, patient-derived pancreatic cancer organoid models PA016SF, PA0143F, T016P, and T028P, and a patient-derived breast cancer organoid model FS5S3.
Colony formation and viability assays were performed in multiwell plates seeded with organoids using an in vitro culture system composed of a Matrigel layer, media containing a defined set of growth factors, and co-culture with Wnt3 A-secreting mouse embryonic fibroblasts. Assays were initiated by adding either DMSO as a negative control, or an inhibitor panobinostatat 100×IC50 concentration as a positive control, or serially diluted Compound 1. The cultures were incubated for 168 or 144 hours after which the number of viable organoids in each test well was assessed respectively using one of two detection methods: CTG or staining with calcein-AM followed by imaging and colony counting. Colony count or viability of cells treated with compound 1 was expressed as a percent of the negative control. Aggregated Percent of Control values were plotted against the corresponding Compound 1 concentration and the absolute IC50 value was determined from a non-linear regression curve as the concentration where inhibition was 50% of the control.
The colony formation inhibition assays were performed in multiwell plates seeded with SU60 organoids. The cultures were incubated for 168 hours after which the number of colonies was assessed by staining with calcein AM followed by imaging and colony counting. Colony counts were expressed as a percent of the negative control and aggregated Percent of Control values were plotted against the corresponding Compound 1 concentration. A curve was fitted using non-linear regression.

Structure (SMILES): CC(C)c1ccc(N(C)c2ccc3c(c2)OCC[C@H]3CNc2cnccc2C(=O)O)cc1 [Compound 1, 3-({[(4R)-7-{methyl[4-(propan-2-yl)phenyl]amino}-3,4-dihydro-2H-1-benzopyran-4-yl]methyl}amino)pyridine-4-carboxylic acid]
- IC50 (Homo sapiens, SU60 colorectal carcinoma model, colony formation and viability assays): < 150 nM
- IC50 (SU60 human colorectal carcinoma organoid, 144 hrs, Colony Counts): 64 nM
- IC50 (SU60 human colorectal carcinoma organoid, 168 hrs, CTG): 23 nM
